In patent publication US12571805B2, “Methods and compositions for determining OxPL-associated diseases and disorders” (The Regents of the University of California, priority 2019, dated 2026):

Columns and labels:
[1] = test system: primary hepatocytes; assay: OxPAPC treatment of primary hepatocytes: ROS, mitochondrial membrane potential, fatty acid oxidation, SOD activity; assay type: cell-based, mouse; settings: 200 μM MnTBAP 1 hour, then OxPAPC 100 μg/mL 4 hours, Ldlr−/− hepatocytes
Method: Primary hepatocyte isolation: Primary hepatocytes were isolated from 6-week-old Ldlr^−/− and E06-scFvLdlr^−/− mice by a 2-step collagenase perfusion method. Briefly, HBSS (Life Technologies Co.; no Calcium and Magnesium, 0.5 mM EDTA, 25 mM HEPES) was used to perfuse liver at 10 mL/min speed until the liver turns into pale. Afterward, the liver was perfused with HBSS digestion buffer (Life Technologies Co.; 30 mg/100 mL collagenase I, 2 tablet/100 mL protease inhibitor) at 15 mL/min speed for 18 min. After sequential flows, cells were smashed through 100 μm strainer and washed with Williams' Medium E (Gibco, Grand Island, NY). Hepatocytes were isolated by density gradient centrifugation using percoll (Pharmacia, Sweden). Hepatocytes with 95% viability were cultured in Williams' Medium E supplemented with 5% serum, 0.5% penicillin/streptomycin and 15 mM HEPES at 37° C. in a 5% CO2 incubator overnight before use in experimentation.
ROS and Mitochondrial membrane potential measurement: Total ROS was determined with Total ROS detection Kit (ENZ-51011 Enzo Life Sciences Inc.) and mitochondrial ROS levels using MitoSOX (Invitrogen) following the manufacturers' instructions. Mitochondrial membrane potential (Ψm) was measured using TMRM as previously described (Shimada et al., 2012).
Ex vivo/in vitro fatty acid oxidation assay: Liver or adipose tissues were dissected, weighted, quickly rinsed in PBS. Minced tissues were placed in 96-well tissue culture plate. […] Fatty Acid Oxidation was measured with combination of Fatty Acid Oxidation Assay Kit (Abcam) and Oxygen Consumption Assay Kit (Abcam) according to the manufacturer's instruction. […] Fluorescence was measured at 37° C. for 30 min by Tecan Infinite M200 Pro.
In vitro modification of SOD and SOD activity: Recombinant human MnSOD (Abcam, ab82656) was incubated with POVPC (Avanti Polar Lipids, 870606) (molar ration 1:40) or vehicle at 37° C. overnight. […] SOD activity of recombinant and modified MnSOD and liver and cell lysates was measured with Superoxide Dismutase Activity Assay Kit (Abcam) according to the manufacturer's instruction.

[2] = target: T1, Recombinant human MnSOD (Homo sapiens, UniProt P04179); assay: In vitro modification of SOD and SOD activity; assay type: biochemical; settings: POVPC molar ratio 1:40, 37° C. overnight, vs native MnSOD
T1 construct: purchased Abcam ab82656
T1 sequence (P04179 25-222): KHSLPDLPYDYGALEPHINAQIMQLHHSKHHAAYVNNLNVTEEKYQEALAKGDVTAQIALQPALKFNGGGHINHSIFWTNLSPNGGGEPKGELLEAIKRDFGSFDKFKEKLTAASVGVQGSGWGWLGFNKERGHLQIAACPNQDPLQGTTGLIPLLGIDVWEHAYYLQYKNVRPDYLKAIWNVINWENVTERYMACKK
Method: In vitro modification of SOD and SOD activity: Recombinant human MnSOD (Abcam, ab82656) was incubated with POVPC (Avanti Polar Lipids, 870606) (molar ration 1:40) or vehicle at 37° C. overnight. 300 μg/mL NaBH3CN was added to stabilize reversible OxPL adducts. Both native and POVPC modified MnSOD were dialyzed extensively against PBS. SOD activity of recombinant and modified MnSOD and liver and cell lysates was measured with Superoxide Dismutase Activity Assay Kit (Abcam) according to the manufacturer's instruction.

| Compound | OxPL-diminished mitochondrial membrane potential [1] | mitochondrial ROS accumulation [1] | total ROS accumulation [1] | MnSOD activity of POVPC modified MnSOD [2] |
| --- | --- | --- | --- | --- |
| O=C(O)c1ccc(/C2=C3\C=CC(=N3)/C(c3ccc(C(=O)O)cc3)=c3/cc/c4[n]3[Mn]([Cl])[n]3c2ccc3/C(c2ccc(C(=O)O)cc2)=C2/C=CC(=N2)\C=4c2ccc(C(=O)O)cc2)cc1 [MnTBAP] | restored | abrogated | abrogated |  |
| CCCCCCCCCCCCCCCC(=O)OC[C@H](COP(=O)([O-])OCC[N+](C)(C)C)OC(=O)CCCC=O [POVPC, 1-palmitoyl-2-(5′-oxo-valeroyl)-sn-glycero-3-phosphocholine] |  |  |  | significantly decreased activity |
